Series [1] relates to Mus musculus. As to the kind of experiment: Muscle relaxant activity in po dosed mouse assessed as increase in strychnine-induced persistant convulsive threshold. The series is classed as functional.
Series [2] can be described thus: Ratio of LD50 for po dosed mouse to PD50 for acute toxicity in po dosed mouse assessed as concentration required to produce 50% loss of righting reflex. To be noted: in vivo. It is filed as organism-based.
Series [3] has as its system Mus musculus. As to the kind of experiment: Acute toxicity in po dosed mouse assessed as concentration required to produce 50% loss of righting reflex administered as qd for 4 days measured for 1 min post last dose. The series is classed as organism-based. Particulars: in vivo.
The next series deals with Rattus norvegicus. As to the kind of experiment: Antianxiety activity in ip dosed rat assessed as effect on increase in punished responses administered qd for 5 days measured every day for 5 days. The series is classed as functional. Particulars: for minimal effective dose: 120 h, read-out: MED.
Series [4] deals with Mus musculus. The experiment in a line: Muscle relaxant activity in po dosed mouse assessed as blockade of pentylenetetrazol-induced tonic extensor seizure. It is filed as functional.
Series [5] is described as follows: Acute toxicity in po dosed mouse assessed as mortality administered as qd for 6 days measured on day 7 post last dose. It is filed as organism-based. Particulars: in vivo.
The subject of series [6] is Mus musculus. The experiment in a line: Anticonvulsant activity in po dosed mouse assessed as blockade of supramaximal electroshock-induced […] seizure. It is filed as functional. (In general: The maximal electroshock test induces tonic seizures with an electrical stimulus.)
The test system of series [7] is Mus musculus. The experiment in a line: Hypnotic activity in po dosed mouse assessed as increase in pentylenetetrazol-induced persistent-convulsive threshold. It is filed as functional, organism-based.
Series [8] has as its system Mus musculus. The experiment in a line: Sedative-hypnotic activity in po dosed mouse assessed as increase in pentylenetetrazol-induced persistent-convulsive threshold. It is filed as functional, organism-based.

Activity calls are given as the source filed them.

In general, LD50 refers to the dose at which mortality reaches 50%. Consider `COc1cccc(NC(=O)/N=C2\CCC(C)N2C)c1` (stereo unspecified), for which the MED25 in the series with Mus musculus [1] came out at 160 mg/kg. Besides, the selectivity ratio in series [2] turned out to be 1.5. Also, in the series on Mus musculus [3], the PD50 was 680 mg/kg. Further, the minimal effective dose in the series with Rattus norvegicus was above 25 mg/kg. Besides, the values for the MED20 in the series with Mus musculus [4] and in the series with Mus musculus [6] were 68 mg/kg and 135 mg/kg, respectively. Moreover, the LD50 at 144 h in series [5] amounted to 1900 mg/kg.
In the case of `Cc1cccc(C)c1NC(=O)/N=C1\CC(c2ccccc2)CN1C` (stereo unspecified), the result in the series on Mus musculus [1], in the series on Mus musculus [7], in the series with Mus musculus [8], in the series on Rattus norvegicus, in the series with Mus musculus [4] and in the series on Mus musculus [6] was inactive.
In the case of `Cc1cccc(C)c1NC(=O)/N=C1\CC(C)(C)CN1C`, the result in the series with Mus musculus [1], in the series with Mus musculus [7], with Mus musculus [8], in the series on Rattus norvegicus, with Mus musculus [4] and in the series with Mus musculus [6] was inactive.
`CN1CC(c2ccccc2)C/C1=N\C(=O)Nc1c(Cl)cccc1Cl` (stereo unspecified): the outcome with Mus musculus [1], in the series on Mus musculus [7], in the series on Mus musculus [8], with Rattus norvegicus, in the series with Mus musculus [4] and with Mus musculus [6] was inactive.
Turning to `CCOc1ccccc1NC(=O)/N=C1\CCCN1C`, the result in the series on Mus musculus [1], in the series with Mus musculus [7], with Mus musculus [8], in the series on Rattus norvegicus, in the series with Mus musculus [4] and in the series on Mus musculus [6] was Active.
Turning to `O=C(/N=C1\CCCCCN1)Nc1c(Cl)cccc1Cl`, the outcome in the series with Mus musculus [1], in the series on Mus musculus [7], with Mus musculus [8], in the series on Rattus norvegicus, in the series with Mus musculus [4] and in the series on Mus musculus [6] was inactive.
Regarding `CN1CCCC/C1=N\C(=O)Nc1ccccc1`, the outcome in the series on Mus musculus [1], in the series on Mus musculus [7], in the series with Mus musculus [8], with Rattus norvegicus, in the series on Mus musculus [4] and in the series with Mus musculus [6] was inactive.
Turning to `Cc1cccc(C)c1NC(=O)/N=C1\C(C)C(c2ccccc2)CN1C` (stereo unspecified), the result with Mus musculus [1], in the series on Mus musculus [7], in the series on Mus musculus [8], in the series with Rattus norvegicus, with Mus musculus [4] and with Mus musculus [6] was inactive.
Take `CCCCN1CCC/C1=N\C(=O)Nc1c(C)cccc1C`: the outcome in the series with Mus musculus [1], with Mus musculus [7], in the series on Mus musculus [8], in the series on Rattus norvegicus, with Mus musculus [4] and with Mus musculus [6] was inactive.
Regarding `CC1/C(=N\C(=O)Nc2c(Cl)cccc2Cl)N(C)CC1c1ccccc1` (stereo unspecified), the outcome in the series with Mus musculus [1], in the series with Mus musculus [7], with Mus musculus [8], with Rattus norvegicus, in the series on Mus musculus [4] and with Mus musculus [6] was inactive.
Regarding `CN1CC(C)(C)C/C1=N\C(=O)Nc1c(Cl)cccc1Cl`, the outcome in the series with Mus musculus [1], with Mus musculus [7], with Mus musculus [8], with Rattus norvegicus, in the series on Mus musculus [4] and in the series on Mus musculus [6] was inactive.
`CN1CCC/C1=N\C(=O)Nc1cccc(I)c1`: the MED25 in the series on Mus musculus [1] is 86 mg/kg. In addition, the PD50 in the series on Mus musculus [3] was above 820 mg/kg. In addition, the minimal effective dose with Rattus norvegicus was above 25 mg/kg. Also, the values for the MED20 in the series with Mus musculus [4] and with Mus musculus [6] were 36 mg/kg and 112 mg/kg, respectively. The LD50 at 144 h in series [5] was above 1000 mg/kg.
For the molecule `CN1CC(C)(C)C/C1=N\C(=O)Nc1ccccc1`, the result in the series with Mus musculus [1], in the series on Mus musculus [7], with Mus musculus [8], with Rattus norvegicus, in the series with Mus musculus [4] and in the series with Mus musculus [6] was inactive.
In the case of `O=C(/N=C1\CCCN1Cc1ccccc1)Nc1cccc(C(F)(F)F)c1`, the result with Mus musculus [1], in the series with Mus musculus [7], in the series with Mus musculus [8], with Rattus norvegicus, in the series with Mus musculus [4] and with Mus musculus [6] was inactive.
`CCCCN1CCC/C1=N\C(=O)Nc1cccc(Cl)c1`: the outcome in the series with Mus musculus [1], in the series on Mus musculus [7], with Mus musculus [8], in the series with Rattus norvegicus, with Mus musculus [4] and in the series on Mus musculus [6] was inactive.
With `CN1CC(c2ccccc2)C/C1=N\C(=O)Nc1ccccc1` (stereo unspecified), the result in the series with Mus musculus [1], with Mus musculus [7], in the series on Mus musculus [8], in the series with Rattus norvegicus, with Mus musculus [4] and with Mus musculus [6] was inactive.
With `Cc1ccccc1NC(=O)/N=C1\CCCN1C`, the result in the series on Mus musculus [1], in the series with Mus musculus [7], in the series with Mus musculus [8], in the series with Rattus norvegicus, in the series with Mus musculus [4] and in the series with Mus musculus [6] was Active.
In the case of `CN1CCCCC/C1=N\C(=O)Nc1ccccc1`, the result with Mus musculus [1], in the series on Mus musculus [7], in the series with Mus musculus [8], in the series on Rattus norvegicus, in the series with Mus musculus [4] and in the series on Mus musculus [6] was inactive.
Take `CCC1(c2ccccc2)C(=O)NC(=O)NC1=O` [PHENOBARBITAL]: in series [2], the selectivity ratio came to 3.
Turning to `Cc1cccc(C)c1NC(=O)/N=C1\CCCCCN1`, the outcome in the series with Mus musculus [1], in the series on Mus musculus [7], in the series on Mus musculus [8], in the series with Rattus norvegicus, in the series with Mus musculus [4] and in the series on Mus musculus [6] was inactive.
On to `CN1CCCC/C1=N\C(=O)Nc1ccc(C(F)(F)F)cc1`, for which the result in the series with Mus musculus [1], in the series on Mus musculus [7], in the series on Mus musculus [8], in the series with Rattus norvegicus, with Mus musculus [4] and with Mus musculus [6] was inactive.
`CC1/C(=N\C(=O)Nc2ccccc2)N(C)CC1c1ccccc1` (stereo unspecified): the outcome in the series on Mus musculus [1], with Mus musculus [7], with Mus musculus [8], with Rattus norvegicus, with Mus musculus [4] and with Mus musculus [6] was inactive.
Turning to `CN1CCC/C1=N\C(=O)Nc1ccccc1C(F)(F)F`, the outcome in the series with Mus musculus [1], with Mus musculus [7], in the series with Mus musculus [8], with Rattus norvegicus, in the series with Mus musculus [4] and in the series with Mus musculus [6] was Active.
With `CN1CCCCC/C1=N\C(=O)Nc1c(Cl)cccc1Cl`, the outcome in the series with Mus musculus [1], with Mus musculus [7], in the series on Mus musculus [8], in the series on Rattus norvegicus, in the series on Mus musculus [4] and in the series with Mus musculus [6] was inactive.
Take `CN1CCC/C1=N\C(=S)Nc1ccc([N+](=O)[O-])cc1`: the outcome with Mus musculus [1], with Mus musculus [7], with Mus musculus [8], in the series on Rattus norvegicus, with Mus musculus [4] and with Mus musculus [6] was inactive.
With `CC1/C(=N\C(=O)Nc2cccc(Cl)c2)N(C)CC1c1ccccc1` (stereo unspecified), the outcome in the series with Mus musculus [1], in the series with Mus musculus [7], with Mus musculus [8], in the series on Rattus norvegicus, in the series with Mus musculus [4] and with Mus musculus [6] was inactive.
In the case of `Cc1cccc(C)c1NC(=O)/N=C1\CCCN1Cc1ccccc1`, the outcome in the series with Mus musculus [1], in the series with Mus musculus [7], in the series with Mus musculus [8], with Rattus norvegicus, in the series on Mus musculus [4] and with Mus musculus [6] was inactive.
As for `O=C(/N=C1\CCCCCN1)Nc1ccccc1`, the outcome in the series on Mus musculus [1], in the series with Mus musculus [7], with Mus musculus [8], with Rattus norvegicus, in the series on Mus musculus [4] and with Mus musculus [6] was inactive.
As for `CN1CCCCC/C1=N\C(=O)Nc1cccc(Cl)c1`, the result in the series on Mus musculus [1], in the series on Mus musculus [7], with Mus musculus [8], in the series on Rattus norvegicus, with Mus musculus [4] and with Mus musculus [6] was inactive.
With `O=C(/N=C1\CCCN1Cc1ccccc1)Nc1cccc(Cl)c1`, the outcome with Mus musculus [1], in the series with Mus musculus [7], in the series with Mus musculus [8], in the series with Rattus norvegicus, in the series on Mus musculus [4] and in the series on Mus musculus [6] was inactive.
